The record followed here is ChEMBL document CHEMBL4330159, “Isoquinoline Alkaloids from Berberis vulgaris as Potential Lead Compounds for the Treatment of Alzheimer's Disease” (J Nat Prod, 2019).

The target of data set [1] is T1, Cholinesterase (Homo sapiens, UniProt P06276). Kind of data set: Inhibition of human BuChE using butyrylthiocholine iodide as substrate measured for 1 min by Ellman's method.
Another data set is filed under the species Homo sapiens. Kind of data set: Selectivity index, ratio of IC50 for human BuChE to IC50 for human AChE.
The next data set addresses Acetylcholinesterase (Homo sapiens, UniProt P22303).
The target in another data set is T2, Prolyl endopeptidase (Homo sapiens, UniProt P48147).
T2 sequence (P48147 whole entry): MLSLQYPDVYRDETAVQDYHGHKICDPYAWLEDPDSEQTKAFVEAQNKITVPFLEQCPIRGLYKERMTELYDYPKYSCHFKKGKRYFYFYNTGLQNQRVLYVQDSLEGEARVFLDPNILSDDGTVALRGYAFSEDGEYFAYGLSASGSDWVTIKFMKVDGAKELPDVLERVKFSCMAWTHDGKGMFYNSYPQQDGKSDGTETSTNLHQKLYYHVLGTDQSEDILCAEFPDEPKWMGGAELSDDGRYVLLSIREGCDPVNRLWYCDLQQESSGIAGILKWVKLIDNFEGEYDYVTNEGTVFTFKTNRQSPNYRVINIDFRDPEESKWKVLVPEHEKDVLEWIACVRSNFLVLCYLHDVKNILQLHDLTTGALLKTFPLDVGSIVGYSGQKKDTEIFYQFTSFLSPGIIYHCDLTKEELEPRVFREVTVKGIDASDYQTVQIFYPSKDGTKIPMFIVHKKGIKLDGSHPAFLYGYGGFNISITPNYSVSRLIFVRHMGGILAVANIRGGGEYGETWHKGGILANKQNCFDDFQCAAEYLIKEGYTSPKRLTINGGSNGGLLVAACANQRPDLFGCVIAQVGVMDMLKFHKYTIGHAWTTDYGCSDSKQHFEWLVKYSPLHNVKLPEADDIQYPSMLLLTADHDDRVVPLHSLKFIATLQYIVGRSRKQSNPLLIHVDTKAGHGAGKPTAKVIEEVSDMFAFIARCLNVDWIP
Kind of data set: Inhibition of POP (unknown origin) using (Z)-Gly-Pro-p-nitroanilide as substrate preincubated for 5 mins followed by substrate addition and measured after 30 mins by spectrophotometric method.

In data set [2] the target is T1, Cholinesterase. Kind of data set: Mixed-type inhibition of human BuChE assessed as enzyme-inhibitor complex using butyrylthiocholine iodide as substrate by Lineweaver-Burk plot analysis.
In data set [3] the target is T1, Cholinesterase. Kind of data set: Mixed-type inhibition of human BuChE assessed as enzyme-substrate-inhibitor complex using butyrylthiocholine iodide as substrate by Lineweaver-Burk plot analysis.
Data set [4] deals with Glycogen synthase kinase-3 beta (Homo sapiens) (UniProt P49841). Kind of data set: Inhibition of GSK3B (unknown origin) at 10 uM relative to control.
Data set [5] can be described thus: Permeability of the compound after 2.45 hrs by PAMPA. In kind it is ADME. The conditions noted are these: read-out: permeability.

T1 sequence (P06276 whole entry): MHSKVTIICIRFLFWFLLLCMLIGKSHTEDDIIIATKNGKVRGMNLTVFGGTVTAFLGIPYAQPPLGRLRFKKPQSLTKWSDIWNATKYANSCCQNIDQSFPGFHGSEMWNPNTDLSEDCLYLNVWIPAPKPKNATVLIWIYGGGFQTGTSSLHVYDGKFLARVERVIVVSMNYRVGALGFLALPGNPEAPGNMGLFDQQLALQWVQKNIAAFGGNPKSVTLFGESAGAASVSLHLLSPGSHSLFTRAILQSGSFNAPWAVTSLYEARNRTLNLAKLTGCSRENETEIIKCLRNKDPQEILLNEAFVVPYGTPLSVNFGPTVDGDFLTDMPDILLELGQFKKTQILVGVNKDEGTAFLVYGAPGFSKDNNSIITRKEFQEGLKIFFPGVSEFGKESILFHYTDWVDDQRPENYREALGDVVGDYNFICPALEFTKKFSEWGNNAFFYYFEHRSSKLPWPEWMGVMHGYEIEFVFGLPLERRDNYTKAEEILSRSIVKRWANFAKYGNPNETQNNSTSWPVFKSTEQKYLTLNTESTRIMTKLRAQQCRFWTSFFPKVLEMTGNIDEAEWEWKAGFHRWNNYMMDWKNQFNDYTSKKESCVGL
Acetylcholinesterase, sequence (P22303 whole entry): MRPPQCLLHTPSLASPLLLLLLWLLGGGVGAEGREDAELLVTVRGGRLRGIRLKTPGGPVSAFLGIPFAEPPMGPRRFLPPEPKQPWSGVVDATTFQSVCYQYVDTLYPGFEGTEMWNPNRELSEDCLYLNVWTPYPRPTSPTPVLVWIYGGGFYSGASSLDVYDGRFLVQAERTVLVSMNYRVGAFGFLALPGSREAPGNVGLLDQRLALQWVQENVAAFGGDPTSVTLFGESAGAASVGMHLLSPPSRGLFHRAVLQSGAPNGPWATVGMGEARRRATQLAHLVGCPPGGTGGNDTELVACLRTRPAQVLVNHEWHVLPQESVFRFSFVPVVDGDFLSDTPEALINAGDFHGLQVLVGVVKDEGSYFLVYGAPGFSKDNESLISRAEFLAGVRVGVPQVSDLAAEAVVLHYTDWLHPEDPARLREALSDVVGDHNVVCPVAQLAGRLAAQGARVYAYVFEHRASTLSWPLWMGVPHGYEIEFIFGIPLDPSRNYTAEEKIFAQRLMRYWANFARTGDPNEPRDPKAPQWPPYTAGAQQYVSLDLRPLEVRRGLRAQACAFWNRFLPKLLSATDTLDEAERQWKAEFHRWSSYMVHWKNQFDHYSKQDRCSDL
Glycogen synthase kinase-3 beta (Homo sapiens), sequence (P49841 whole entry, looked up): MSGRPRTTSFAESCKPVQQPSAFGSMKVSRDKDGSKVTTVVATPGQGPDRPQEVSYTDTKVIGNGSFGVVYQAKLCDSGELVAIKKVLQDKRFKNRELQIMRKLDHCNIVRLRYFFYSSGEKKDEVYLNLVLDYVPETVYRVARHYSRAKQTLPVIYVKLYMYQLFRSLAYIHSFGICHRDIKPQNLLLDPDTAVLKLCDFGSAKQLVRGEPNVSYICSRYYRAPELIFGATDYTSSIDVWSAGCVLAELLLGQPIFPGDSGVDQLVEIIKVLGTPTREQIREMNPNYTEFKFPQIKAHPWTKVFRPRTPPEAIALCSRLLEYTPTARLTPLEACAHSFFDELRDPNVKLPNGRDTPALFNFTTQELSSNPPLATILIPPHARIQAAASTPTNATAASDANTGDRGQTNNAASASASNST
Description for Acetylcholinesterase: Inhibition of human AChE using acetylthiocholine iodide as substrate measured for 1 min by Ellman's method

The term IC50 denotes the concentration at which inhibition is half-maximal. In the case of `COc1cc2c(cc1O)C(Cc1ccc(O)c(Oc3cc(CC4c5cc(O)c(OC)cc5CCN4C)ccc3OC)c1)N(C)CC2` (stereo not given), the IC50 came out at 6.9 µM on Cholinesterase [1] and 66 µM against Acetylcholinesterase. In addition, in the data set filed under Homo sapiens, the Ratio IC50 was found to be 0.1.
With `COc1cc2c(cc1Oc1c3c(cc(OC)c1OC)CCN(C)C3)C(Cc1ccc(O)cc1)N(C)CC2` (stereo not given), the values for the IC50 on Cholinesterase [1], at Prolyl endopeptidase and at Acetylcholinesterase were 68 µM, > 200 µM and > 100 µM, respectively. Besides, the Ratio IC50 in the data set filed under Homo sapiens was determined as 0.2.
In the case of `CCN(CC)Cc1cc2cc(c1O)Oc1ccc(cc1)C[C@H]1c3cc(c(OC)cc3CCN1C)Oc1c(OC)c(OC)cc3c1[C@@H](C2)N(C)CC3`, the 50% inhibitory concentration (IC50) against Cholinesterase [1] was > 100 µM; against Acetylcholinesterase, 68 µM.
One may read the Ki as a measure of affinity in units of concentration, obtained from inhibition or displacement. What is called inhibition is how much of the control response was suppressed. On to `COc1cc2c3cc1Oc1c(O)c(OC)cc4c1[C@H](Cc1ccc(cc1)Oc1cc(ccc1O)C[C@H]3N(C)CC2)N(C)CC4`, for which the IC50 at Cholinesterase [1] is 0.8 µM; against Prolyl endopeptidase, 189 µM; against Acetylcholinesterase, > 100 µM. In addition, the Ratio IC50 in the data set listed under Homo sapiens was 0.008. The results for the Ki on Cholinesterase [2] and at Cholinesterase [3] were 6.41 µM and 39.7 µM, respectively. The same compound registered an inhibition in data set [4] of 10%. In addition, in data set [5], the Papp at 2.45 h amounted to 1.8 ×10⁻⁶ cm/s.
Take `COc1cc2c3cc1Oc1c(OC)c(OC)cc4c1[C@@H](Cc1ccc(O)c(c1)Oc1ccc(cc1)C[C@@H]3N(C)CC2)N(C)CC4` [BERBAMINE]: the half-inhibitory concentration (IC50) is > 100 µM at Cholinesterase [1], > 200 µM against Prolyl endopeptidase and > 100 µM on Acetylcholinesterase. For the same compound, the Ratio IC50 in the data set filed under Homo sapiens stood at 0.4.
With `COc1ccc2cc3[n+](cc2c1OC)CCc1cc2c(cc1-3)OCO2` [BERBERINE], the Papp at 2.45 h in data set [5] stood at 0.1 ×10⁻⁶ cm/s.
In the case of `COc1ccc2c3c1O[C@H]1C[C@@H](O)C=C[C@@]31CCN(C)C2` [GALANTAMINE], the half-maximal inhibitory concentration (IC50) against Prolyl endopeptidase was > 200 µM.
For `C/C=C1\[C@H]2C=C(C)C[C@]1(N)c1ccc(=O)[nH]c1C2` [HUPERZINE A], the IC50 against Cholinesterase [1] is > 100 µM.
Consider `COc1cc2c3cc1Oc1c(O)c(OC)cc4c1[C@@H](Cc1ccc(O)c(c1)Oc1ccc(cc1)C[C@@H]3N(C)CC2)N(C)CC4` [OBAMEGINE], for which the figures for the IC50 against Cholinesterase [1], on Prolyl endopeptidase and against Acetylcholinesterase were > 100 µM, > 200 µM and 97 µM, respectively. Besides, the Ratio IC50 in the data set listed under Homo sapiens worked out at 1.5.
In the case of `COc1ccc2cc3n(c(=O)c2c1OC)CCc1cc2c(cc1-3)OCO2` [OXYBERBERINE], the concentration for half-maximal inhibition (IC50) against Cholinesterase [1] is 68 µM; on Prolyl endopeptidase, > 200 µM; at Acetylcholinesterase, > 100 µM. The Ratio IC50 in the data set filed under Homo sapiens turned out to be 1.1.
With `COc1cc2c(cc1OC)-c1cc3ccc(OC)c(OC)c3c[n+]1CC2` [PALMITINE], the results for the half-inhibitory concentration (IC50) on Cholinesterase [1] and on Prolyl endopeptidase were > 100 µM and > 200 µM, respectively. Moreover, the Ratio IC50 in the data set listed under Homo sapiens was determined as 86.
